Reference: patent US10913727B2, “Modulators of the integrated stress pathway” (Calico Life Sciences LLC, priority 2016, dated 2021)

Each molecule was assayed on HEK293T cells carrying the ATF4 luciferase reporter (assay: ATF4-Luc assay, in vitro model of Vanishing Cell White Matter Disease (VWMD)). Details: Homo sapiens, HEK-293T, 1 μg/mL tunicamycin, 7 hours, One Glo luminescence.
Type: cell-based
Method: In order to test exemplary compounds of the invention in a cellular context, a stable VWMD cell line was first constructed. The ATF4 reporter was prepared by fusing the human full-length ATF4 5′-UTR (NCBI Accession No. BC022088.2) in front of the firefly luciferase (FLuc) coding sequence lacking the initiator methionine as described in Sidrauski et al (eLife 2013). The construct was used to produce recombinant retroviruses using standard methods and the resulting viral supernatant was used to transduce HEK293T cells, which were then subsequently selected with puromycin to generate a stable cell line.
HEK293T cells carrying the ATF4 luciferase reporter were plated on polylysine coated 384-well plates (Greiner Bio-one) at 30,000 cells per well. Cells were treated the next day with 1 μg/mL tunicamycin and 200 nM of a compound of Formula (I) for 7 hours. Luminescence was measured using One Glo (Promega) as specified by the manufacturer. Cells were maintained in DMEM with L-glutamine supplemented with 10% heat-inactivated FBS (Gibco) and Antibiotic-Antimycotic solution (Gibco).
Table 2 below summarizes the EC50 data obtained using the ATF4-Luc assay for exemplary compounds of the invention.

First: CCCOc1ccc(C(=O)NC23CC(NC(=O)COc4ccc(Cl)c(F)c4)(C2)C3)cc1 [Compound 316, N-{3-[2-(4-chloro-3-fluorophenoxy)acetamido]bicyclo[1.1.1]pentan-1-yl}-4-propoxybenzamide]
Second: O=C(COc1ccc(Cl)c(F)c1)NC12CC(NC(=O)c3ccncc3)(C1)C2 [Compound 186, N-{3-[2-(4-chloro-3-fluorophenoxy)acetamido]bicyclo[1.1.1]pentan-1-yl}pyridine-4-carboxamide]
The EC50 of the first is lower: 50 to 250 nM for the first, 250 to 1000 nM for the second. The first is the more potent here.

`COc1cc(F)ccc1C(=O)NC12CC(NC(=O)COc3ccc(Cl)c(F)c3)(C1)C2` [Compound 527, N-{3-[2-(4-chloro-3-fluorophenoxy)acetamido]bicyclo[1.1.1]pentan-1-yl}-4-fluoro-2-methoxybenzamide] and `COCc1ccccc1C(=O)NC12CC(NC(=O)COc3ccc(Cl)c(F)c3)(C1)C2` [Compound 550, N-{3-[2-(4-chloro-3-fluorophenoxy)acetamido]bicyclo[1.1.1]pentan-1-yl}-2-(methoxymethyl)benzamide] fall in the same range of EC50: 1000 to 2000 nM for the first, 1000 to 2000 nM for the second.

Compared with `COc1cc(OC)nc(C(=O)NC23CC(NC(=O)COc4ccc(Cl)c(F)c4)(C2)C3)n1` [Compound 116, N-{3-[2-(4-chloro-3-fluorophenoxy)acetamido]bicyclo[1.1.1]pentan-1-yl}-4,6-dimethoxypyrimidine-2-carboxamide], `Cc1cc(C(=O)NC23CC(NC(=O)COc4ccc(Cl)c(F)c4)(C2)C3)no1` [Compound 273, N-{3-[2-(4-chloro-3-fluorophenoxy)acetamido]bicyclo[1.1.1]pentan-1-yl}-5-methyl-1,2-oxazole-3-carboxamide] is lower in EC50: > 2000 nM for the first, 250 to 1000 nM for the second.

First: Cc1cc2c(NC34CC(NC(=O)COc5cc(F)c(F)c(F)c5)(C3)C4)nccn2n1 [Compound 495, N-{3-[(2-methylpyrazolo[1,5-a]pyrazin-4-yl)amino]bicyclo[1.1.1]pentan-1-yl}-2-(3,4,5-trifluorophenoxy)acetamide]
Second: Cc1cc2c(NC34CC(NC(=O)COc5cccc(OC(F)(F)F)c5)(C3)C4)nccn2n1 [Compound 424, N-{3-[(2-methylpyrazolo[1,5-a]pyrazin-4-yl)amino]bicyclo[1.1.1]pentan-1-yl}-2-[3-(trifluoromethoxy)phenoxy]acetamide]
The EC50 of the first is lower: 250 to 1000 nM for the first, 1000 to 2000 nM for the second.

First: Cc1cnc2cccc(C(=O)NC34CC(NC(=O)COc5ccc(Cl)c(F)c5)(C3)C4)c2n1 [Compound 843, N-{3-[2-(4-chloro-3-fluorophenoxy)acetamido]bicyclo[1.1.1]pentan-1-yl}-3-methylquinoxaline-5-carboxamide]
Second: C[S+]([O-])c1ccccc1C(=O)NC12CC(NC(=O)COc3ccc(Cl)c(F)c3)(C1)C2 (stereo not shown) [Compound 858, N-{3-[2-(4-chloro-3-fluorophenoxy)acetamido]bicyclo[1.1.1]pentan-1-yl}-2-(methanesulfinyl)benzamide]
The EC50 of the first is higher: > 2000 nM for the first, 1000 to 2000 nM for the second. The second is the more potent here.

First: Cc1ncsc1C(=O)NC12CC(NC(=O)COc3ccc(Cl)c(F)c3)(C1)C2 [Compound 558, N-{3-[2-(4-chloro-3-fluorophenoxy)acetamido]bicyclo[1.1.1]pentan-1-yl}-4-methyl-1,3-thiazole-5-carboxamide]
Second: COc1csc(C(=O)NC23CC(NC(=O)COc4ccc(Cl)c(F)c4)(C2)C3)c1 [Compound 857, N-{3-[2-(4-chloro-3-fluorophenoxy)acetamido]bicyclo[1.1.1]pentan-1-yl}-4-methoxythiophene-2-carboxamide]
The EC50 of the first is higher: 1000 to 2000 nM for the first, 50 to 250 nM for the second.

Compared with `CC(=O)Nc1c(C)nn(C)c1C(=O)NC12CCC(NC(=O)COc3ccc(Cl)c(F)c3)(CC1)C(O)C2` (stereo not shown) [Compound 505, 4-acetamido-N-{4-[2-(4-chloro-3-fluorophenoxy)acetamido]-3-hydroxybicyclo[2.2.2]octan-1-yl}-1,3-dimethyl-1H-pyrazole-5-carboxamide], `O=C(COc1ccc(Cl)c(F)c1)NC12CCC(NC(=O)c3cc(C(F)F)no3)(CC1)CC2O` (stereo not shown) [Compound 632, N-{4-[2-(4-chloro-3-fluorophenoxy)acetamido]-3-hydroxybicyclo[2.2.2]octan-1-yl}-3-(difluoromethyl)-1,2-oxazole-5-carboxamide] is lower in EC50: > 2000 nM for the first, < 50 nM for the second. The second is the more potent here.

`CCc1ncc(C(=O)NC23CC(NC(=O)COc4ccc(Cl)c(F)c4)(C2)C3)o1` [Compound 290, N-{3-[2-(4-chloro-3-fluorophenoxy)acetamido]bicyclo[1.1.1]pentan-1-yl}-2-ethyl-1,3-oxazole-5-carboxamide] and `Cc1noc(C(=O)NC23CC(NC(=O)COc4ccc(Cl)c(F)c4)(C2)C3)n1` [Compound 375, N-{3-[2-(4-chloro-3-fluorophenoxy)acetamido]bicyclo[1.1.1]pentan-1-yl}-3-methyl-1,2,4-oxadiazole-5-carboxamide] fall in the same range of EC50: 50 to 250 nM for the first, 50 to 250 nM for the second.

First: O=C(COc1ccc2c(c1)OC(F)(F)O2)NC12CCC(NC(=O)c3cccc(F)c3)(CC1)C[C@@H]2O [Compound 635, N-[(3S)-4-{2-[(2,2-difluoro-2H-1,3-benzodioxol-5-yl)oxy]acetamido}-3-hydroxybicyclo[2.2.2]octan-1-yl]-3-fluorobenzamide]
Second: COc1ccccc1-c1cc(C(=O)NC23CCC(NC(=O)COc4ccc(Cl)c(F)c4)(CC2)C(O)C3)on1 (stereo not shown) [Compound 397, N-{4-[2-(4-chloro-3-fluorophenoxy)acetamido]-3-hydroxybicyclo[2.2.2]octan-1-yl}-3-(2-methoxyphenyl)-1,2-oxazole-5-carboxamide]
The EC50 of the first is higher: 250 to 1000 nM for the first, 50 to 250 nM for the second. The second is the more potent here.

First: O=C(COc1ccc(Cl)c(F)c1)NC12CC(NC(=O)c3cnc4[nH]ncc4c3)(C1)C2 [Compound 608, N-{3-[2-(4-chloro-3-fluorophenoxy)acetamido]bicyclo[1.1.1]pentan-1-yl}-1H-pyrazolo[3,4-b]pyridine-5-carboxamide]
Second: O=C(COc1ccc(Cl)c(F)c1)NC12CC(NC(=O)c3ccc4ncoc4c3)(C1)C2 [Compound 834, N-{3-[2-(4-chloro-3-fluorophenoxy)acetamido]bicyclo[1.1.1]pentan-1-yl}-1,3-benzoxazole-6-carboxamide]
The EC50 of the first is lower: 50 to 250 nM for the first, 250 to 1000 nM for the second. The first is the more potent here.

First: O=C(COc1ccc(Cl)c(F)c1)NC12CC(NC(=O)c3cc(-c4ccc(Cl)cc4)on3)(C1)C2 [Compound 113, N-{3-[2-(4-chloro-3-fluorophenoxy)acetamido]bicyclo[1.1.1]pentan-1-yl}-5-(4-chlorophenyl)-1,2-oxazole-3-carboxamide]
Second: O=C(COc1ccc(Cl)c(F)c1)NC12CC(Nc3ccnc(-c4ccc(Cl)cc4)n3)(C1)C2 [Compound 427, 2-(4-chloro-3-fluorophenoxy)-N-(3-{[2-(4-chlorophenyl)pyrimidin-4-yl]amino}bicyclo[1.1.1]pentan-1-yl)acetamide]
The EC50 of the first is lower: 50 to 250 nM for the first, 250 to 1000 nM for the second. The first is the more potent here.

First: O=C(COc1ccc(Cl)c(Cl)c1)NC12CCC(NC(=O)c3cnc(C(F)F)cn3)(CC1)C[C@@H]2O [Compound 703, N-{(3S)-4-[2-(3,4-dichlorophenoxy)acetamido]-3-hydroxybicyclo[2.2.2]octan-1-yl}-5-(difluoromethyl)pyrazine-2-carboxamide]
Second: CCn1ccc(C(=O)NC23CC(NC(=O)COc4ccc(Cl)c(F)c4)(C2)C3)n1 [Compound 850, N-{3-[2-(4-chloro-3-fluorophenoxy)acetamido]bicyclo[1.1.1]pentan-1-yl}-1-ethyl-1H-pyrazole-3-carboxamide]
The EC50 of the first is lower: < 50 nM for the first, 50 to 250 nM for the second. The first is the more potent here.

`N#Cc1cnc(NC23CC(NC(=O)COc4ccc(Cl)c(F)c4)(C2)C3)cn1` [Compound 720, 2-(4-chloro-3-fluorophenoxy)-N-{3-[(5-cyanopyrazin-2-yl)amino]bicyclo[1.1.1]pentan-1-yl}acetamide] and `O=C(COc1ccc(Cl)c(F)c1)NC12CC(Nc3cncc(C(F)(F)F)n3)(C1)C2` [Compound 747, 2-(4-chloro-3-fluorophenoxy)-N-(3-{[6-(trifluoromethyl)pyrazin-2-yl]amino}bicyclo[1.1.1]pentan-1-yl)acetamide] cannot be ordered by EC50: > 2000 nM for the first, > 2000 nM for the second.

First: O=C(COc1ccc(Cl)c(F)c1)NC12CC(Nc3nc4ccccc4o3)(C1)C2 [Compound 360, N-{3-[(1,3-benzoxazol-2-yl)amino]bicyclo[1.1.1]pentan-1-yl}-2-(4-chloro-3-fluorophenoxy)acetamide]
Second: O=C(COc1ccc(Cl)c(F)c1)NC12CC(NC(=O)c3cc(C(F)(F)F)no3)(C1)C2 [Compound 380, N-{3-[2-(4-chloro-3-fluorophenoxy)acetamido]bicyclo[1.1.1]pentan-1-yl}-3-(trifluoromethyl)-1,2-oxazole-5-carboxamide]
The EC50 of the first is higher: > 2000 nM for the first, 250 to 1000 nM for the second. The second is the more potent here.

First: CCn1nc(C)cc1C(=O)NC12CC(NC(=O)COc3ccc(Cl)c(F)c3)(C1)C2 [Compound 359, N-{3-[2-(4-chloro-3-fluorophenoxy)acetamido]bicyclo[1.1.1]pentan-1-yl}-1-ethyl-3-methyl-1H-pyrazole-5-carboxamide]
Second: CC(C)c1nnsc1C(=O)NC12CC(NC(=O)COc3ccc(Cl)c(F)c3)(C1)C2 [Compound 893, N-{3-[2-(4-chloro-3-fluorophenoxy)acetamido]bicyclo[1.1.1]pentan-1-yl}-4-(propan-2-yl)-1,2,3-thiadiazole-5-carboxamide]
The EC50 of the first is lower: 250 to 1000 nM for the first, 1000 to 2000 nM for the second.

For `O=C(COc1ccc2c(c1)OC(F)(F)O2)NC12CC(NC(=O)c3ccc(OC(F)(F)F)cn3)(C1)C2` [Compound 378, N-(3-{2-[(2,2-difluoro-2H-1,3-benzodioxol-5-yl)oxy]acetamido}bicyclo[1.1.1]pentan-1-yl)-5-(trifluoromethoxy)pyridine-2-carboxamide], the EC50 was < 50 nM.
